Reference: PubChem BioAssay AID330 (DTP/NCI, 2004)
“And” between values parts separate entries of the source, which are not always exact repeats. Equal entries are not always repeated. Toxic doses and inconclusive results are not listed. The calls were made as follows: active = survival T/C of 150% or more; inactive = T/C below 125% in these data.

System: P388 leukemia ip, CD2F1 mice, survival T/C
Assay: NCI In Vivo Anticancer Drug Screen. Data for tumor model P388 Leukemia (intraperitoneal) in CD2F1 (CDF1) mice
Conditions: endpoint: median survival time, higher = longer survival
Method in brief: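 Mice carrying the transplanted tumor received test compound or vehicle. Survival was recorded in each group, and the value is the treated-group measurement divided by that of the vehicle-treated control group.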

[1] = dose: 60.0 mg/kg/injection, schedule: Q01DX005 (ip), vehicle: saline with Tween-80
[2] = dose: 120.0 mg/kg/injection, schedule: Q01DX005 (ip), vehicle: saline with Tween-80
[3] = dose: 240.0 mg/kg/injection, schedule: Q01DX005 (ip), vehicle: saline with Tween-80
[4] = dose: 50.0 mg/kg/injection, schedule: Q01DX009 (ip), vehicle: saline
[5] = dose: 100.0 mg/kg/injection, schedule: Q01DX009 (ip), vehicle: saline
[6] = dose: 200.0 mg/kg/injection, schedule: Q01DX009 (ip), vehicle: saline
[7] = dose: 50.0 mg/kg/injection, schedule: Q01DX005 (ip), vehicle: Klucel (hydroxypropylcellulose) (HPC)
[8] = dose: 100.0 mg/kg/injection, schedule: Q01DX005 (ip), vehicle: Klucel (hydroxypropylcellulose) (HPC)
[9] = dose: 200.0 mg/kg/injection, schedule: Q01DX005 (ip), vehicle: Klucel (hydroxypropylcellulose) (HPC)

Measured: T/C

CCN1C[C@]2(COC)[C@H](O)C[C@H](OC)[C@]34C1[C@H]([C@H](OC)[C@H]23)[C@]1(OC(C)=O)[C@H]2[C@@H](OC(=O)c3ccccc3)[C@](O)(C[C@H]24)[C@@H](OC)[C@@H]1O
inactive: dose: 0.01 mg/kg/injection, schedule: Q01DX009 (ip), vehicle: saline 113 % of control and 88 % of control

CC(=O)OCCOCn1cc(C)[n+]([O-])nc1=O
inactive: [1] 100 % of control | [2] 94 % of control | [3] 95 % of control

CC(C)OP(=S)(S)OC(C)C
inactive: [4] 114 % of control | [5] 118 % of control | [6] 97 % of control

CCOC(=O)c1cnc(SC)n(-c2ccc(OC)cc2)c1=O
inactive: [7] 107 % of control | [8] 92 % of control | [9] 101 % of control

O=c1[nH]c(=S)[nH]cc1Oc1ccc(I)cc1
inactive: dose: 12.5 mg/kg/injection, schedule: Q01DX009 (ip), vehicle: Klucel (hydroxypropylcellulose) (HPC) 106 % of control | dose: 25.0 mg/kg/injection, schedule: Q01DX009 (ip), vehicle: Klucel (hydroxypropylcellulose) (HPC) 107 % of control | dose: 50.0 mg/kg/injection, schedule: Q01DX009 (ip), vehicle: Klucel (hydroxypropylcellulose) (HPC) 104 % of control

CC1N(C)c2cc3[nH]c(=O)cc(C(F)(F)F)c3cc2C1(C)C (stereo not drawn)
inactive: dose: 100.0 mg/kg/injection, schedule: Q01DX001 (ip), vehicle: Klucel (hydroxypropylcellulose) (HPC) 92 % of control and 96 % of control | dose: 200.0 mg/kg/injection, schedule: Q01DX001 (ip), vehicle: Klucel (hydroxypropylcellulose) (HPC) 103 % of control and 94 % of control | dose: 400.0 mg/kg/injection, schedule: Q01DX001 (ip), vehicle: Klucel (hydroxypropylcellulose) (HPC) 121 % of control

ClC1=NOC(c2ccccc2)C1 (stereo not drawn)
inactive: dose: 6.25 mg/kg/injection, schedule: Q01DX005 (ip), vehicle: distilled water + Tween-80 110 % of control | dose: 12.5 mg/kg/injection, schedule: Q01DX005 (ip), vehicle: distilled water + Tween-80 97 % of control | dose: 25.0 mg/kg/injection, schedule: Q01DX005 (ip), vehicle: distilled water + Tween-80 100 % of control | dose: 50.0 mg/kg/injection, schedule: Q01DX005 (ip), vehicle: distilled water + Tween-80 105 % of control and 107 % of control | dose: 100.0 mg/kg/injection, schedule: Q01DX005 (ip), vehicle: distilled water + Tween-80 99 % of control | dose: 200.0 mg/kg/injection, schedule: Q01DX005 (ip), vehicle: distilled water + Tween-80 108 % of control

CC1OC(O[C@H]2C[C@](O)(C(=O)CO)Cc3c(O)c4c(c(O)c32)C(=O)c2c(OCc3ccccc3)cccc2C4=O)CC(N)C1O (stereo partly drawn)
inactive: dose: 3.13 mg/kg/injection, schedule: Q04DX003 (ip), vehicle: water 118 % of control | dose: 6.25 mg/kg/injection, schedule: Q04DX003 (ip), vehicle: distilled water + Tween-80 110 % of control | dose: 6.25 mg/kg/injection, schedule: Q04DX003 (ip), vehicle: water 118 % of control | dose: 12.5 mg/kg/injection, schedule: Q04DX003 (ip), vehicle: water 123 % of control | dose: 25.0 mg/kg/injection, schedule: Q04DX003 (ip), vehicle: water 123 % of control

Cc1[nH]nc(N)c1C(N)=O
inactive: [1] 100 % of control | [2] 99 % of control | [3] 86 % of control

c1cc(Nc2ccc3c(c2)OCO3)c2cc(C3CCCCC3)ccc2n1
inactive: [1] 97 % of control | [2] 98 % of control | [3] 100 % of control

COc1ccc(-c2csc(=[N+]3CCCCC3)s2)cc1
inactive: dose: 3.13 mg/kg/injection, schedule: Q01DX009 (ip), vehicle: water 100 % of control | dose: 6.25 mg/kg/injection, schedule: Q01DX009 (ip), vehicle: water 105 % of control and 110 % of control

O=c1oc2ccccc2c(O)c1C(c1ccc(Cl)cc1)c1c(O)c2ccccc2oc1=O
inactive: dose: 15.0 mg/kg/injection, schedule: Q01DX005 (ip), vehicle: saline with Tween-80 94 % of control | dose: 30.0 mg/kg/injection, schedule: Q01DX005 (ip), vehicle: saline with Tween-80 93 % of control

CCN(CC)CCCNC(=O)c1noc2cc([N+](=O)[O-])ccc12
inactive: dose: 12.5 mg/kg/injection, schedule: Q01DX005 (ip), vehicle: saline 113 % of control | dose: 25.0 mg/kg/injection, schedule: Q01DX005 (ip), vehicle: saline 105 % of control | dose: 50.0 mg/kg/injection, schedule: Q01DX005 (ip), vehicle: saline 99 % of control

O=C(Cc1ccccn1)c1cccnc1
inactive: dose: 100.0 mg/kg/injection, schedule: Q04DX003 (ip), vehicle: saline 94 % of control | dose: 200.0 mg/kg/injection, schedule: Q04DX003 (ip), vehicle: saline 96 % of control | dose: 400.0 mg/kg/injection, schedule: Q04DX003 (ip), vehicle: saline 100 % of control

COc1ccc(NC2=CC(=S)NC(C)(C)C2)cc1
inactive: [4] 92 % of control | [5] 104 % of control | [6] 104 % of control

Cc1cccc(O)c1O
inactive: [5] 102 % of control | [6] 121 % of control and 122 % of control

CC(=O)Oc1c(C)c(OC(C)=O)c2c(c1C(C)=O)OC1=CC(O)=C(C(C)=O)C(=O)C12C (stereo not drawn)
inactive: dose: 6.25 mg/kg/injection, schedule: Q01DX009 (ip), vehicle: gum acacia 98 % of control and 102 % of control | dose: 12.5 mg/kg/injection, schedule: Q01DX009 (ip), vehicle: gum acacia 104 % of control and 105 % of control | dose: 25.0 mg/kg/injection, schedule: Q01DX009 (ip), vehicle: gum acacia 100 % of control and 102 % of control | dose: 50.0 mg/kg/injection, schedule: Q01DX009 (ip), vehicle: gum acacia 102 % of control and 110 % of control | dose: 100.0 mg/kg/injection, schedule: Q01DX009 (ip), vehicle: gum acacia 113 % of control and 115 % of control | dose: 100.0 mg/kg/injection, schedule: Q04DX002 (ip), vehicle: saline with Tween-80 97 % of control | dose: 200.0 mg/kg/injection, schedule: Q04DX002 (ip), vehicle: saline with Tween-80 102 % of control | dose: 400.0 mg/kg/injection, schedule: Q04DX002 (ip), vehicle: saline with Tween-80 101 % of control

C[Si](C)(C)c1cnc(N)[nH]c1=O
inactive: dose: 25.0 mg/kg/injection, schedule: Q01DX009 (ip), vehicle: saline with Tween-80 115 % of control | dose: 50.0 mg/kg/injection, schedule: Q01DX009 (ip), vehicle: saline with Tween-80 120 % of control | dose: 100.0 mg/kg/injection, schedule: Q01DX009 (ip), vehicle: saline with Tween-80 120 % of control

C/C(=N\NC(=S)NNC(=S)N(C)c1ccccc1)c1ccccc1
inactive: dose: 25.0 mg/kg/injection, schedule: Q01DX005 (ip), vehicle: Klucel (hydroxypropylcellulose) (HPC) 98 % of control | [7] 93 % of control | [8] 94 % of control | [9] 91 % of control

COc1c(Cl)cc2c(c1OC)N(C)C1N3C(=O)C4(C)SSC3(C(=O)N4C)C(O)C21O (stereo not drawn)
inactive: dose: 0.03 mg/kg/injection, schedule: Q01DX009 (ip), vehicle: Klucel (hydroxypropylcellulose) (HPC) 100 % of control and 118 % of control | dose: 0.06 mg/kg/injection, schedule: Q01DX009 (ip), vehicle: Klucel (hydroxypropylcellulose) (HPC) 89 % of control | dose: 0.13 mg/kg/injection, schedule: Q01DX009 (ip), vehicle: Klucel (hydroxypropylcellulose) (HPC) 96 % of control | dose: 0.5 mg/kg/injection, schedule: Q01DX009 (ip), vehicle: Klucel (hydroxypropylcellulose) (HPC) 94 % of control

O=C(O)c1cccc(C(=O)O)c1I
inactive: dose: 100.0 mg/kg/injection, schedule: Q01DX001 (ip), vehicle: other 103 % of control | dose: 200.0 mg/kg/injection, schedule: Q01DX001 (ip), vehicle: other 96 % of control | dose: 400.0 mg/kg/injection, schedule: Q01DX001 (ip), vehicle: other 89 % of control

C=CCn1c(C)nc2c(cnn2C)c1=O
inactive: [7] 101 % of control | [8] 110 % of control | [9] 104 % of control
